Measured values taken from PMC4303209, “A novel phosphatidylinositol 3-kinase (PI3K) inhibitor directs a potent FOXO-dependent, p53-independent cell cycle arrest phenotype characterized by the differential induction of a subset of FOXO-regulated genes” (Breast Cancer Research : BCR, 2014).

System: MCF-7 breast cancer cells
Test: Microarray gene expression analysis (Agilent whole human genome 4 x 44K; compound vs DMSO, LIMMA log2 fold change)
Format: cell-based
Conditions: Apoptosis genes

Oc1cccc(-c2nc(N3CCOCC3)c3oc4ncccc4c3n2)c1 [PI-103]
PML log2FC (Gene 5371): -0.410
POLR2G log2FC (Gene 5436): 0.401
POU3F3 log2FC (Gene 5455): -0.338
POU4F1 log2FC (Gene 5457): -0.488
POU4F3 log2FC (Gene 5459): -0.095
PPARD log2FC (Gene 5467): -0.189
PPARG log2FC (Gene 5468): -0.320
PPID log2FC (Gene 5481): -0.224
PPP1CA log2FC (Gene 5499): -0.185
PPP2CA log2FC (Gene 5515): -0.522
PPP2CB log2FC (Gene 5516): -0.272
PPP2R1B log2FC (Gene 5519): -0.663
PPP2R2B log2FC (Gene 5521): 0.085
PPP2R4 log2FC (Gene 5524): -0.318
PPP2R5C log2FC (Gene 5527): 0.778
PPP3CC log2FC (Gene 5533): 0.049
PPP3R1 log2FC (Gene 5534): -0.344
PPT1 log2FC (Gene 5538): 0.180
PRF1 log2FC (Gene 5551): 0.035
PRKAA1 log2FC (Gene 5562): 0.297
PRKAA2 log2FC (Gene 5563): 0.067
PRKCA log2FC (Gene 5578): -0.157
PRKCD log2FC (Gene 5580): 0.117
PRKCE log2FC (Gene 5581): -0.00329
PRKCG log2FC (Gene 5582): 0.076
PRKCH log2FC (Gene 5583): -0.184
PRKCI log2FC (Gene 5584): 0.477
PKN2 log2FC (Gene 5586): 0.513
PRKD1 log2FC (Gene 5587): 0.547
PRKCQ log2FC (Gene 5588): 0.186
PRKCZ log2FC (Gene 5590): 0.565
PRKDC log2FC (Gene 5591): 0.275
MAPK3 log2FC (Gene 5595): -0.116
MAPK7 log2FC (Gene 5598): -0.110
MAP2K6 log2FC (Gene 5608): 0.357
PRODH log2FC (Gene 5625): -0.118
LGMN log2FC (Gene 5641): -0.107
PSEN1 log2FC (Gene 5663): 0.372
PSEN2 log2FC (Gene 5664): -0.390
PSMA2 log2FC (Gene 5683): 0.170
PSMA3 log2FC (Gene 5684): 0.144
PSMA4 log2FC (Gene 5685): 0.470
PSMA6 log2FC (Gene 5687): 0.068
PSMB1 log2FC (Gene 5689): 0.009
PSMB2 log2FC (Gene 5690): -0.432
PSMB4 log2FC (Gene 5692): 0.171
PSMB5 log2FC (Gene 5693): -0.219
PSMB6 log2FC (Gene 5694): -0.080
PSMB9 log2FC (Gene 5698): -0.100
PSMB10 log2FC (Gene 5699): -0.116
PSMC1 log2FC (Gene 5700): -0.009
PSMC2 log2FC (Gene 5701): 0.279
PSMC3 log2FC (Gene 5702): -0.185
PSMC5 log2FC (Gene 5705): -0.314
PSMC6 log2FC (Gene 5706): 0.515
PSMD1 log2FC (Gene 5707): 0.029
PSMD3 log2FC (Gene 5709): -0.074
PSMD4 log2FC (Gene 5710): -0.036
PSMD5 log2FC (Gene 5711): 0.189
PSMD7 log2FC (Gene 5713): 0.00364
PSMD8 log2FC (Gene 5714): -0.122
PSMD9 log2FC (Gene 5715): -0.396
PSMD10 log2FC (Gene 5716): -0.344
PSMD11 log2FC (Gene 5717): -0.327
PSMD12 log2FC (Gene 5718): -0.768
PSME1 log2FC (Gene 5720): 0.313
PTEN log2FC (Gene 5728): 0.958
PTGFR log2FC (Gene 5737): -0.038
PTGIS log2FC (Gene 5740): -0.013
PTH log2FC (Gene 5741): -0.180
PTGS2 log2FC (Gene 5743): -0.053
PTK2 log2FC (Gene 5747): 0.040
PTPN6 log2FC (Gene 5777): 0.257
PTPRC log2FC (Gene 5788): -0.026
PTPRH log2FC (Gene 5794): 0.545
RAC1 log2FC (Gene 5879): -0.226
RAD9A log2FC (Gene 5883): 0.679
RAD21 log2FC (Gene 5885): 0.829
RAG1 log2FC (Gene 5896): 0.688
RALB log2FC (Gene 5899): 0.076
RARA log2FC (Gene 5914): -0.310
RARG log2FC (Gene 5916): -0.122
RASA1 log2FC (Gene 5921): 0.472
RASGRF2 log2FC (Gene 5924): 0.069
RB1 log2FC (Gene 5925): 0.674
RELA log2FC (Gene 5970): -0.351
DPF2 log2FC (Gene 5977): 0.525
REST log2FC (Gene 5978): 0.317
ROBO1 log2FC (Gene 6091): 0.307
ROBO2 log2FC (Gene 6092): 0.013
ROCK1 log2FC (Gene 6093): 0.642
RPS3A log2FC (Gene 6189): 0.496
RPS6 log2FC (Gene 6194): 0.259
RPS6KA1 log2FC (Gene 6195): -0.106
RPS6KA3 log2FC (Gene 6197): 0.273
RPS6KB1 log2FC (Gene 6198): 0.247
RPS27A log2FC (Gene 6233): 0.447
RTKN log2FC (Gene 6242): -0.055
SORT1 log2FC (Gene 6272): 0.382
S100A8 log2FC (Gene 6279): -0.346
S100B log2FC (Gene 6285): -0.112
SATB1 log2FC (Gene 6304): 0.836
SCT log2FC (Gene 6343): -0.026
CCL2 log2FC (Gene 6347): -0.193
CCL3 log2FC (Gene 6348): -0.075
CCL5 log2FC (Gene 6352): 0.070
CCL21 log2FC (Gene 6366): -0.020
CX3CL1 log2FC (Gene 6376): -0.245
CXCL12 log2FC (Gene 6387): -0.262
MAP2K4 log2FC (Gene 6416): -0.057
SET log2FC (Gene 6418): 0.155
SFRP1 log2FC (Gene 6422): 0.243
SFRP2 log2FC (Gene 6423): -0.008
SFRP4 log2FC (Gene 6424): 0.079
SFRP5 log2FC (Gene 6425): -0.036
ITSN1 log2FC (Gene 6453): 0.185
SHB log2FC (Gene 6461): -0.563
SHH log2FC (Gene 6469): -0.168
SIAH1 log2FC (Gene 6477): 0.170
SIAH2 log2FC (Gene 6478): -0.479
STIL log2FC (Gene 6491): 0.014
SIX1 log2FC (Gene 6495): -0.700
SKI log2FC (Gene 6497): -0.565
SLC9A1 log2FC (Gene 6548): -0.632
SLIT3 log2FC (Gene 6586): -0.267
SNAI2 log2FC (Gene 6591): 0.040
SMO log2FC (Gene 6608): 0.037
SMPD1 log2FC (Gene 6609): 0.629
SMPD2 log2FC (Gene 6610): -0.222
SIGLEC1 log2FC (Gene 6614): -0.395
SNAI1 log2FC (Gene 6615): -0.868
SNCB log2FC (Gene 6620): -0.584
SNCA log2FC (Gene 6622): -0.028
SOD2 log2FC (Gene 6648): 0.190
SON log2FC (Gene 6651): -0.153
SOX2 log2FC (Gene 6657): 0.228
SOX4 log2FC (Gene 6659): 0.369
SOX9 log2FC (Gene 6662): -2.014
SOX10 log2FC (Gene 6663): -0.037
SP100 log2FC (Gene 6672): 0.688
SPI1 log2FC (Gene 6688): -0.418
SPN log2FC (Gene 6693): 0.011
SRC log2FC (Gene 6714): -0.352
SRPK2 log2FC (Gene 6733): 0.776
SST log2FC (Gene 6750): 0.576
SSTR3 log2FC (Gene 6753): -0.180
STAR log2FC (Gene 6770): -0.178
STAT1 log2FC (Gene 6772): 0.221
STAT5A log2FC (Gene 6776): 0.392
STAT5B log2FC (Gene 6777): 0.109
STK4 log2FC (Gene 6789): -0.017
STK11 log2FC (Gene 6794): 0.00114
STXBP1 log2FC (Gene 6812): -0.400
SUPV3L1 log2FC (Gene 6832): 0.284
ADAM17 log2FC (Gene 6868): 0.527
TAF9 log2FC (Gene 6880): 0.095
MAP3K7 log2FC (Gene 6885): 0.00173
